Tests used:
Pasteurella multocida [1] = experiment: Leakage of bacterial cell contents; assay type: cell-based; settings: MT 1-10 mg/mL, 12 h
Protocol: 1 mL of Pasteurella multocida (1×10^9 CFU) at the logarithmic growth stage was added into 100 mL of fresh and sterile Martin broth medium containing different concentrations (1 mg/mL, 2 mg/mL, 3 mg/mL, 4 mg/mL, 6 mg/mL, 8 mg/mL and 10 mg/mL) of MT. Melatonin-free DMSO was used as a solvent control group, ampicillin (100 μg/mL) was used as a positive control group, and bacterial cells were cultured in a shaker at 37° C. and 220 rpm for 12 h. Thereafter, 1 mL of the bacterial solution was taken and centrifuged at 3000 r/min for 10 minutes, and the supernatant and precipitated cells were collected, respectively. At the same time, 2.5 mmol/mL of o-nitrophenyl-β-D-galactopyranoside (ONPG) and Pasteurella multocida were added to detect β-galactosidase. The concentrations of protein, alkaline phosphatase (AKP) and reducing sugar in the supernatant were determined sequentially using respective determination kits. The β-galactosidase in the supernatant was determined by measuring the optical density at 420 nm (OD420). Each experiment was carried out for three times, and each group was set in triplicate.

Pasteurella multocida [2] = experiment: Prevention and treatment of Pasteurella multocida infection in mice; assay type: in vivo, C57BL/6 mice
Protocol: (§1) C57 mice purchased from the Third Military Medical University were randomly divided into four groups (10 mice in each group): a group of Pasteurella multocida+solvent control, a group of Pasteurella multocida+MT (30 mg/kg), a group of Pasteurella multocida+MT (60 mg/kg), and a group of Pasteurella multocida+MT (120 mg/kg). Before Pasteurella multocida infection, MT was injected intraperitoneally to the experimental group (injection once in the morning) for consecutive 7 days (P) or 6 days (P-1), while the control mice received the equal amount of DMSO. Thereafter, mice were infected by intraperitoneal injection of suspension of Pasteurella multocida ([…]). The survival rate of mice within 7 days was monitored and recorded. Blood samples were collected from mice, and the serum was stored at −20° C. for later ELISA test. Lung samples were collected and homogenized aseptically, and then the bacterial load was quantified by serial dilution, plate inoculation and CFU counting.
(§2) Mice were randomly divided into four groups (10 mice in each group) as described in #1, described above. In the experimental group, after infection with 2.2×10^5 CFU of Pasteurella multocida through intraperitoneal injection, MT was injected intraperitoneally for four times, with the first injection 30 minutes after Pasteurella multocida infection, then the injection was performed once every 6 hours, for three times in total. Control mice were given an equal amount of DMSO at the same four time points. Subsequently, the survival rate of mice within 7 days was recorded. At the same time, mice were euthanized at 12 h, 16 h, 24 h and 32 h after infection to collect tissue and serum samples for later ELISA and bacterial count analysis.
In order to measure the colonization of mouse lung bacteria before and after melatonin treatment, the lung tissues of mice were collected 24 hours and 32 hours after infection. The tissues were homogenized under aseptic conditions, and the bacterial content was determined by continuous dilution of 10 times in saline. […]

Pasteurella multocida [3] = experiment: Non-targeted metabonomic analysis; assay type: cell-based; settings: 1 mg/mL of MT, 12 hours
Protocol: 1 mL of fresh Pasteurella multocida (P. multocida) at the logarithmic growth stage was added into 100 mL of fresh Martin liquid medium containing 1 mg/mL of MT, and MT-free DMSO was used as a solvent control group. All cultures were incubated with shaking at 37° C. and 220 rpm for 12 hours. The bacterial samples were centrifuged at a speed of 3000 rpm/min at 4° C. for 10 minutes, the supernatant was removed, and the bacterial cells were collected and washed with PBS for 3 times. The bacterial cells were rapidly frozen in liquid nitrogen, transferred to dry ice, and sent to Shanghai Baiqu Biomedical Technology Co., Ltd. for metabolomic analysis (Q Exactive Orbitrap, Thermo Fisher Scientific, USA). Through the non-targeted metabonomic study of Pasteurella multocida cells before and after melatonin treatment, it was clarified which metabolic pathway of the bacteria is affected by melatonin in exerting the antibacterial activity of melatonin.

Pasteurella multocida [4] = experiment: Treatment of Pasteurella multocida infection by melatonin in mice; assay type: in vivo, C57BL/6 mice; settings: intraperitoneal at 30 minutes, 6, 12 and 18 hours after infection
Protocol: as §2
(§3) In order to measure the colonization of mouse lung bacteria before and after melatonin treatment, the lung tissues of mice were collected 24 hours and 32 hours after infection. The tissues were homogenized under aseptic conditions, and the bacterial content was determined by continuous dilution of 10 times in saline. These different dilutions were coated on the Martin broth agar in triplicate and incubated in a constant-temperature incubator at 37° C. for 24 hours to count the bacterial CFU.

Pneumococcus = experiment: Growth curve with melatonin and citric acid; assay type: cell-based, Diplococcus pneumoniae; settings: MT 1-3 mg/mL, FIG. 27
Protocol: (§4) In additional studies, 1 mL of Klebsiella pneumoniae, Pseudomonas aeruginosa, Diplococcus pneumoniae and Streptococcus pneumoniae at the logarithmic growth stage was added into 100 mL of fresh and sterile Martin broth medium containing different concentrations of melatonin and citric acid (CA) (MT-1 mg/mL, MT-1 mg/mL-CA-1 mg/mL, MT-1 mg/mL-CA-2 mg/mL, MT-1 mg/mL-CA-3 mg/mL; MT-2 mg/mL, MT-2 mg/mL-CA-1 mg/mL, MT-2 mg/mL-CA-2 mg/mL, MT-2 mg/mL-CA-3 mg/mL; MT-3 mg/mL, MT-3 mg/mL-CA-1 mg/mL, MT-3 mg/mL-CA-2 mg/mL MT-3 mg/mL-CA-3 mg/mL).

Streptococcus = experiment: Growth curve with melatonin and citric acid; assay type: cell-based, Streptococcus pneumoniae; settings: MT 1-3 mg/mL, FIG. 27
Protocol: as §4

Pasteurella multocida [5] = experiment: Prevention of Pasteurella multocida infection by melatonin in mice; assay type: in vivo, C57BL/6 mice
Protocol: as §1, §3

[6] = preventive dose 60 mg/kg or above, intraperitoneal, consecutive 7 days before infection

Compound: COc1ccc2[nH]cc(CCNC(C)=O)c2c1 [melatonin, N-acetyl-5-methoxytryptamine]
- activity of extracellular β-galactosidase (Pasteurella multocida [1]; OD420, FIG. 7): increase
- content of extracellular proteins (Pasteurella multocida [1]; supernatant, FIG. 4): increase
- content of extracellular alkaline phosphatase (Pasteurella multocida [1]; supernatant, FIG. 6): increase
- content of extracellular reducing sugar (Pasteurella multocida [1]; supernatant, FIG. 8): increase
- activity of extracellular ATPase (Pasteurella multocida [1]; FIG. 5): increase
- bacterial colonization in the lung tissues of mice (Pasteurella multocida [2]; 24 hours and 32 hours after infection, prevention and treatment groups vs DMSO group): significantly reduced
- decrease of bacterial colonization amount (CFU/g) (Pasteurella multocida [2]; dose of 120 mg/kg, lung tissues): about 2 log 10
- survival rates of mice (Pasteurella multocida [2]; prevention and treatment groups vs DMSO group, intraperitoneal, FIGS. 29-34): significantly improved
- acetyl coenzyme A level in bacterial cells (Pasteurella multocida [3]): significantly up-regulated
- citric acid level in bacterial cells (Pasteurella multocida [3]): significantly down-regulated
- pyruvic acid level in bacterial cells (Pasteurella multocida [3]): significantly up-regulated
- survival rate (Pasteurella multocida [4]; FIG. 35): improving the survival rate
- bacterial colonization in mouse lungs (Pasteurella multocida [4]; FIG. 36): reducing bacterial colonization
- antibacterial activity (Pneumococcus): exhibits antibacterial activity
- antibacterial activity (Streptococcus): exhibits antibacterial activity
- preventive effect on the bacterial infection (Pasteurella multocida [5]; melatonin removed 24 hours before infection (P-1, 6 days), FIGS. 33 and 34): significant preventive effect
- bacterial count in the lung (Pasteurella multocida [5]; [6]): significantly reduced
- survival rate of mice (Pasteurella multocida [5]; [6]): significantly improved

— patent US20210353595A1, “USE OF MELATONIN IN PREPARATION OF MEDICAMENT FOR INHIBITING AND/OR KILLING BACTERIUM” (priority 2020, published 2021)
